Laboratory results from US20220389013A1, “PYRIDOPYRIMIDINONE COMPOUNDS AND APPLICATIONS THEREOF” (BeBetter Med Inc., priority 2020, published 2022).

How the values were obtained:
MIA-Paca2 (KRAS G12C) = assay: Tumor cell proliferation inhibition assay (CellTiter-Glo), MIA-Paca2; type: cell-based, Human; settings: 10% fetal bovine serum
Description: (§1) The H358, H23 or MIA-Paca2 cells were digested, centrifuged and resuspended, and the cell density was measured with a Scepter automatic cell counter. Cells were diluted to a solution containing 44,000 cells per milliliter, then added to a 96-well culture plate at 90 μL per well. The 96-well plate was placed in a 5% CO2 incubator at 37° C., and after the cells were cultured for 24 hours, different concentrations of the compounds to be tested were added. Cells were incubated with compounds in the presence of 10% fetal bovine serum for 72 hours. The inhibition of cell growth was assessed by measuring ATP levels by using the CellTiter-Glo Luminescent Cell Viability Assay Kit (details in manufacturer's instructions). In brief, 30 μL of CellTiter-Glo reagent was added to each well and the plate was shaken for 10 minutes to induce cell lysis, then the fluorescent signal was detected and recorded with a Fluoroskan Ascent FL (Thermo). Maximum signal values were obtained from cells treated with DMSO for 72 hours. Minimum signal values were obtained with medium only (zero cell number). Inhibition rate %=(maximum signal value-compound signal value)/(maximum signal value-minimum signal value)×100%. Data were processed by using Graphpad prism5 software. IC50 values were calculated using a sigmoidal dose-response curve.

H358 (KRAS G12C) = assay: Tumor cell proliferation inhibition assay (CellTiter-Glo), H358; type: cell-based, Human; settings: 10% fetal bovine serum
Description: as §1

[1] = Pharmacokinetic (PK) experiment in rats by gavage; type: in vivo; settings: rat, plasma, po, male SD rats, 20 mg/kg; for AUC(0-t): read-out: AUC0-24
Description: Male SD rats, weighing 180-250 g, were fasted overnight before the test and stomach administrated with the test compound at 20 mg/kg. 15 minutes, 30 minutes, and 1, 2, 4, 6, 8, and 24 hours after administration, blood was taken from the end of the tail of the fracture, about 0.3 mL per time point, then placed in a centrifuge tube containing K2-EDTA, and centrifuged (2000 g, 10 min, at 4° C.). Plasma was collected and stored in an ultra-low temperature freezer at −80° C. 50 μL of plasma samples were vortexed with 135 μL of acetonitrile (containing 1 μg/mL internal standard) for protein precipitation and centrifuged, and the supernatant was collected for LC-MS/MS analysis.
After the rats oral administrated with the Pyridopyrimidinone compounds provided by the present disclosure, the absorption is good, and the blood exposure is relatively high. […] Cmax refers to the maximum plasma concentration, T1/2 is the half-life, AUC0-24 refers to the area under the 0-24 hour time-concentration curve, and AUC0-inf refers to the area under the 0-Inf time-concentration curve.

IC50 (MIA-Paca2 (KRAS G12C); Homo sapiens, MIA PaCa-2, 72 h) [nM]	IC50 (H358 (KRAS G12C); Homo sapiens, NCI-H358, 72 h) [nM]	SMILES	other results
100 to 500	100 to 500	C=CC(=O)N1CCN(c2nc(=O)n(-c3c(C)cccc3C(C)C)c3nc(-c4c(F)ccc5ccoc45)c(F)cc23)[C@@H](C)C1 [Compound 106, 4-((S)-4-acryloyl-2-methylpiperazin-1-yl)-6-fluoro-7-(6-fluorobenzofuran-7-yl)-1-(2-isopropyl-6-methylphenyl)pyrido[2,3-d]pyrimidin-2(1H)-one]	–
100 to 500	10 to 50	C=CC(=O)N1CCN(c2nc(=O)n(-c3c(C)ccnc3C(C)C)c3nc(-c4c(C)ccc5ccoc45)c(F)cc23)[C@@H](C)C1 [Compound 108, 4-((S)-4-acryloyl-2-methylpiperazin-1-yl)-6-fluoro-1-(2-isopropyl-4-methylpyridin-3-yl)-7-(6-methylbenzofuran-7-yl)pyrido[2,3-d]pyrimidin-2(1H)-one]	melting point: 151 to 163 °C
–	10 to 50	C=CC(=O)N1CCN(c2nc(=O)n(-c3c(C)ccnc3C(C)C)c3nc(-c4c(F)c(O)cc5ccoc45)c(Cl)cc23)[C@@H](C)C1 [Compound 110, 4-((S)-4-acryloyl-2-methylpiperazin-1-yl)-6-chloro-7-(6-fluoro-5-hydroxybenzofuran-7-yl)-1-(2-isopropyl-4-methylpyridin-3-yl)pyrido[2,3-d]pyrimidin-2(1H)-one]	melting point: 92 to 104 °C
–	50 to 100	C=CC(=O)N1CCN(c2nc(=O)n(-c3c(C)ccnc3C(C)C)c3nc(-c4c(F)c(OC)cc5ccoc45)c(Cl)cc23)[C@@H](C)C1 [Compound 111, 4-((S)-4-acryloyl-2-methylpiperazin-1-yl)-6-chloro-7-(6-fluoro-5-methoxybenzofuran-7-yl)-1-(2-isopropyl-4-methylpyridin-3-yl)pyrido[2,3-d]pyrimidin-2(1H)-one]	melting point: 101 to 113 °C
–	< 10	C=CC(=O)N1CCN(c2nc(=O)n(-c3c(C(C)C)ncnc3C(C)C)c3nc(-c4c(F)ccc5ccoc45)c(Cl)cc23)[C@@H](C)C1 [Compound 118, 4-((S)-4-acryloyl-2-methylpiperazin-1-yl)-6-chloro-1-(4,6-diisopropylpyrimidin-5-yl)-7-(6-fluorobenzofuran-7-yl)pyrido[2,3-d]pyrimidin-2(1H)-one]	melting point: 254 to 256 °C
10 to 50	10 to 50	C=CC(=O)N1CCN(c2nc(=O)n(-c3c(C(C)C)ccnc3C(C)C)c3nc(-c4c(F)ccc5ccoc45)c(F)cc23)[C@@H](C)C1 [Compound 121, 4-((S)-4-acryloyl-2-methylpiperazin-1-yl)-1-(2,4-diisopropylpyridin-3-yl)-6-fluoro-7-(6-fluorobenzofuran-7-yl)pyrido[2,3-d]pyrimidin-2(1H)-one]	–
–	100 to 500	C=CC(=O)N1CCN(c2nc(=O)n(-c3c(C)ccnc3C(C)C)c3nc(-c4c(F)ccc5ccoc45)c(F)cc23)C[C@@H]1CC#N (atropisomer, axis not shown; (M)) [Compound 100-1, 2-((2S)-1-acryloyl-4-(6-fluoro-7-(6-fluorobenzofuran-7-yl)-1(M)-(2-isopropyl-4-methylpyridin-3-yl)-2-oxo-1,2-dihydropyrido[2,3-d]pyrimidin-4-yl)piperazin-2-yl)acetonitrile]	–
–	–	C=CC(=O)N1C[C@H](C)N(c2nc(=O)n(-c3c(C)ccnc3C(C)C)c3nc(-c4c(F)ccc5ccoc45)c(F)cc23)C[C@H]1C (atropisomer, axis not shown; (P)) [Compound 89-2, 4-((2S,5R)-4-acryloyl-2,5-dimethylpiperazin-1-yl)-6-fluoro-7-(6-fluorobenzofuran-7-yl)-1(P)-(2-isopropyl-4-methylpyridin-3-yl)pyrido[2,3-d]pyrimidin-2(1H)-one]	IC50 (MIA-Paca2 (KRAS G12C); 72 hours): > 500 nM; IC50 (H358 (KRAS G12C); 72 hours): 11 nM
–	10 to 50	C=CC(=O)N1CCN(c2nc(=O)n(-c3c(C)ccnc3C(C)C)c3nc(-c4c(F)ccc5ccoc45)c(Cl)cc23)C[C@@H]1CC#N (atropisomer, axis not shown; (M)) [Compound 101-1, 2-((2S)-1-acryloyl-4-(6-chloro-7-(6-fluorobenzofuran-7-yl)-1(M)-(2-isopropyl-4-methylpyridin-3-yl)-2-oxo-1,2-dihydropyrido[2,3-d]pyrimidin-4-yl)piperazin-2-yl)acetonitrile]	–
> 500	100 to 500	C=CC(=O)N1CCN(c2nc(=O)n(-c3c(C)ccnc3C(C)C)c3nc(-c4cccc5ccoc45)c(F)cc23)[C@@H](C)C1 [Compound 107, (S)-4-(4-acryloyl-2-methylpiperazin-1-yl)-7-(benzofuran-7-yl)-6-fluoro-1-(2-isopropyl-4-methylpyridin-3-yl)pyrido[2,3-d]pyrimidin-2(1H)-one]	–
10 to 50	< 10	C=CC(=O)N1CCN(c2nc(=O)n(-c3c(C)ccnc3C(C)C)c3nc(-c4c(F)ccc5c4OCCO5)c(Cl)cc23)[C@@H](C)C1 [Compound 98, 4-((S)-4-acryloyl-2-methylpiperazin-1-yl)-6-chloro-7-(6-fluoro-2,3-dihydrobenzo[b][1,4]dioxin-5-yl)-1-(2-isopropyl-4-methylpyridin-3-yl)pyrido[2,3-d]pyrimidin-2(1H)-one]	–
100 to 500	11	C=CC(=O)N1CCN(c2nc(=O)n(-c3ccccc3C(C)C)c3nc(-c4c(F)ccc5ccoc45)c(F)cc23)[C@@H](C)C1 [Compound 120, 4-((S)-4-acryloyl-2-methylpiperazin-1-yl)-6-fluoro-7-(6-fluorobenzofuran-7-yl)-1-(2-isopropylphenyl)pyrido[2,3-d]pyrimidin-2(1H)-one]	–
50 to 100	10 to 50	C=CC(=O)N1CCN(c2nc(=O)n(-c3c(C)ccnc3C(C)C)c3nc(-c4c(F)ccc5c4OCO5)c(F)cc23)[C@@H](C)C1 [Compound 69, 4-((S)-4-acryloyl-2-methylpiperazin-1-yl)-6-fluoro-7-(5-fluorobenzo[d][1,3]dioxol-4-yl)-1-(2-isopropyl-4-methylpyridin-3-yl)pyrido[2,3-d]pyrimidin-2(1H)-one]	AUC(0-inf) [1]: 9930 ng·h/mL; Cmax [1]: 4390 ng/mL; Tmax [1]: 0.83 h; half-life [1]: 5.38 h; AUC(0-t) [1]: 9920 ng·h/mL
10 to 50	10 to 50	C=CC(=O)N1CCN(c2nc(=O)n(-c3c(C)ccnc3C(C)C)c3nc(-c4c(F)ccc5c4OCCO5)c(F)cc23)[C@@H](C)C1 [Compound 72, 4-((S)-4-acryloyl-2-methylpiperazin-1-yl)-6-fluoro-7-(6-fluoro-2,3-dihydrobenzo[b][1,4]dioxin-5-yl)-1-(2-isopropyl-4-methylpyridin-3-yl)pyrido[2,3-d]pyrimidin-2(1H)-one]	–
10 to 50	< 10	C=CC(=O)N1CCN(c2nc(=O)n(-c3c(C)ccnc3C(C)C)c3nc(-c4c(Cl)ccc5ccoc45)c(Cl)cc23)[C@@H](C)C1 [Compound 105, 4-((S)-4-acryloyl-2-methylpiperazin-1-yl)-6-chloro-7-(6-chlorobenzofuran-7-yl)-1-(2-isopropyl-4-methylpyridin-3-yl)pyrido[2,3-d]pyrimidin-2(1H)-one]	–
50 to 100	10 to 50	C=CC(=O)N1CCN(c2nc(=O)n(-c3c(C)ccnc3C(C)C)c3nc(-c4c(Cl)ccc5ccoc45)c(F)cc23)[C@@H](C)C1 [Compound 112, 4-((S)-4-acryloyl-2-methylpiperazin-1-yl)-7-(6-chlorobenzofuran-7-yl)-6-fluoro-1-(2-isopropyl-4-methylpyridin-3-yl)pyrido[2,3-d]pyrimidin-2(1H)-one]	–
> 500	1	C=CC(=O)N1CCN(c2nc(=O)n(-c3c(C)ccnc3C(C)C)c3nc(-c4cccc5cc[nH]c45)c(F)cc23)[C@@H](C)C1 [Compound 82, (S)-4-(4-acryloyl-2-methylpiperazin-1-yl)-6-fluoro-7-(1H-indol-7-yl)-1-(2-isopropyl-4-methylpyridin-3-yl)pyrido[2,3-d]pyrimidin-2(1H)-one]	–
10 to 50	< 10	C=CC(=O)N1CCN(c2nc(=O)n(-c3c(C)ccnc3C(C)C)c3nc(-c4c(F)cc(F)c5ccoc45)c(Cl)cc23)[C@@H](C)C1 [Compound 102, 4-((S)-4-acryloyl-2-methylpiperazin-1-yl)-6-chloro-7-(4,6-difluorobenzofuran-7-yl)-1-(2-isopropyl-4-methylpyridin-3-yl)pyrido[2,3-d]pyrimidin-2(1H)-one]	AUC(0-inf) [1]: 14200 ng·h/mL; Cmax [1]: 3720 ng/mL; Tmax [1]: 1 h; half-life [1]: 2.85 h; AUC(0-t) [1]: 14200 ng·h/mL
